The values that follow come from publication PMC7778606, “Development of the phenylpyrazolo[3,4-d]pyrimidine-based, insulin-like growth factor receptor/Src/AXL-targeting small molecule kinase inhibitor” (Theranostics, 2021).

pIC50: −log10 of the molar value.

Experiment [1] has as its system H460 cells. The experiment in a line: MTT assay, viability of H460 cells. The experiment is classed as cell-based. The following applies: Homo sapiens, NCI-H460, 72 h, three days, read-out: IC50 against the viability. How it is done: (§1) Cells were seeded into 96-well plates at a density of 1-2 × 10^3 cells/well and incubated for 24 h. Cells were treated with vehicle or various concentrations of test compounds for two (PC9 and PC9/ER cells) or three (other cells) days. Cells were further incubated with MTT solution (final concentration of 500 μg/mL) for 4 h at 37 °C. The formazan products were dissolved in dimethyl sulfoxide (DMSO), and the absorbance was measured at 570 nm. The data are presented as a percentage of the control group.
(Tetrazolium assays rely on reduction of a dye to a coloured formazan, in cell work by metabolically active cells.)

Experiment [2] deals with H1299 cells. The experiment in a line: MTT assay, viability of H1299 cells. The settings on record: Homo sapiens, NCI-H1299, 72 h, three days, read-out: IC50 against the viability. In kind it is cell-based. How it is done: as §1
Experiment [3] concerns AXL. Put plainly: Western blot, phosphorylation of AXL in H1944 and A549 cells. The experiment is classed as cell-based, human. The following applies: 100 nM monotherapy, 1 day. How it is done:
(§2) Before harvesting, the cells were stimulated with 10% FBS for 20 min. Total cell lysates were prepared with modified radioimmunoprecipitation assay lysis buffer (50 mM Tris-HCl [pH 7.4], 150 mM NaCl, 1 mM EDTA, 0.25% sodium deoxycholate, 1% Triton X-100, 100 mM NaF, 5 mM Na3VO4, 1 mM PMSF, 1 μg/mL aprotinin, 1 μg/mL leupeptin, and 1 μg/mL pepstatin). Equal amounts of protein (20 μg) were subjected to 8% SDS-PAGE and electrically transferred onto polyvinylidene difluoride membranes (Bio-Rad Laboratories, Hercules, CA, USA). Membranes were blocked with blocking buffer (3% BSA in Tris-buffered saline containing 0.1% Tween-20 [TBST]) for 1 h at room temperature. The membranes were incubated with primary antibodies diluted in 3% BSA in TBST (1:1,000) overnight at 4 °C, washed multiple times with TBST, and incubated with secondary antibodies diluted in 3% nonfat dry milk in TBST (1:5,000) for 1 h at room temperature. The membranes were washed multiple times with TBST and visualized using an enhanced chemiluminescence detection kit (Thermo Fisher Scientific). Densitometric analysis was performed using ImageJ software.
On the technique in general: Immunoblotting shows a protein as a band on a membrane.

Experiment [4] deals with A549 cells. The experiment in a line: MTT assay, viability of A549 cells. The experiment is classed as cell-based. The following applies: Homo sapiens, 72 h; A549, MTT assay, 10 μM; read-out: % cells growth at 10 μM. The method, then: as §1
Experiment [5] deals with IGF-1R. Put plainly: Western blot, phosphorylation of IGF-1R in H1944 and A549 cells. The experiment is classed as cell-based, human. The following applies: 2 μM monotherapy, 1 day. The method, then: as §2

For `Nc1nc(Nc2ccc3c(c2)CC[C@@H](N2CCCC2)CC3)nn1-c1cc2c(nn1)-c1ccccc1CCC2` [Bemcentinib, bemcentinib], the pIC50 – broadly, −log10 of the IC50, conventionally taken in molar units – in experiment [1] was 6.74; in experiment [2], 6.28. In experiment [3], the “phosphorylation of AXL” value is given as “suppressed phosphorylation”.

As for `COc1cc(Nc2c(C#N)cnc3cc(OCCCN4CCN(C)CC4)c(OC)cc23)c(Cl)cc1Cl` [Bosutinib, bosutinib, reference compound], the activity at 10 µM in experiment [4] was found to be 46%.

In the case of `Cc1ccc(-c2n[nH]c3ncnc(N)c23)cc1` [Compound 1a], in experiment [4], the activity at 10 µM turned out to be 98%.

With `Oc1ccc(Nc2nccc(Nc3cnc4ccccc4c3)n2)cc1` [Compound 23a], the activity at 10 µM in experiment [4] was 69%.

For the compound `Cc1nc(Nc2ncc(C(=O)Nc3c(C)cccc3Cl)s2)cc(N2CCN(CCO)CC2)n1` [Dasatinib, dasatinib], the pIC50 in experiment [1] is 6.27; in experiment [2] it was 7.70.

On to `C[C@]1(O)C[C@@H](c2nc(-c3ccc4ccc(-c5ccccc5)nc4c3)c3c(N)nccn32)C1` [Linsitinib], for which the pIC50 is 5.42 in experiment [1] and 4.89 in experiment [2]. The “phosphorylation of IGF-1R” value in experiment [5] is recorded as “suppressed phosphorylation”.
